These results are taken from patent US9096500B2, “Acyl sulfonamide compounds” (Pfizer Limited, priority 2010, dated 2015).

This assay deals with T1, Nav1.7 (or SCN9A) channel (Homo sapiens, UniProt Q15858).
T1 construct: expressed in transfected cells
T1 sequence (Q15858 whole entry): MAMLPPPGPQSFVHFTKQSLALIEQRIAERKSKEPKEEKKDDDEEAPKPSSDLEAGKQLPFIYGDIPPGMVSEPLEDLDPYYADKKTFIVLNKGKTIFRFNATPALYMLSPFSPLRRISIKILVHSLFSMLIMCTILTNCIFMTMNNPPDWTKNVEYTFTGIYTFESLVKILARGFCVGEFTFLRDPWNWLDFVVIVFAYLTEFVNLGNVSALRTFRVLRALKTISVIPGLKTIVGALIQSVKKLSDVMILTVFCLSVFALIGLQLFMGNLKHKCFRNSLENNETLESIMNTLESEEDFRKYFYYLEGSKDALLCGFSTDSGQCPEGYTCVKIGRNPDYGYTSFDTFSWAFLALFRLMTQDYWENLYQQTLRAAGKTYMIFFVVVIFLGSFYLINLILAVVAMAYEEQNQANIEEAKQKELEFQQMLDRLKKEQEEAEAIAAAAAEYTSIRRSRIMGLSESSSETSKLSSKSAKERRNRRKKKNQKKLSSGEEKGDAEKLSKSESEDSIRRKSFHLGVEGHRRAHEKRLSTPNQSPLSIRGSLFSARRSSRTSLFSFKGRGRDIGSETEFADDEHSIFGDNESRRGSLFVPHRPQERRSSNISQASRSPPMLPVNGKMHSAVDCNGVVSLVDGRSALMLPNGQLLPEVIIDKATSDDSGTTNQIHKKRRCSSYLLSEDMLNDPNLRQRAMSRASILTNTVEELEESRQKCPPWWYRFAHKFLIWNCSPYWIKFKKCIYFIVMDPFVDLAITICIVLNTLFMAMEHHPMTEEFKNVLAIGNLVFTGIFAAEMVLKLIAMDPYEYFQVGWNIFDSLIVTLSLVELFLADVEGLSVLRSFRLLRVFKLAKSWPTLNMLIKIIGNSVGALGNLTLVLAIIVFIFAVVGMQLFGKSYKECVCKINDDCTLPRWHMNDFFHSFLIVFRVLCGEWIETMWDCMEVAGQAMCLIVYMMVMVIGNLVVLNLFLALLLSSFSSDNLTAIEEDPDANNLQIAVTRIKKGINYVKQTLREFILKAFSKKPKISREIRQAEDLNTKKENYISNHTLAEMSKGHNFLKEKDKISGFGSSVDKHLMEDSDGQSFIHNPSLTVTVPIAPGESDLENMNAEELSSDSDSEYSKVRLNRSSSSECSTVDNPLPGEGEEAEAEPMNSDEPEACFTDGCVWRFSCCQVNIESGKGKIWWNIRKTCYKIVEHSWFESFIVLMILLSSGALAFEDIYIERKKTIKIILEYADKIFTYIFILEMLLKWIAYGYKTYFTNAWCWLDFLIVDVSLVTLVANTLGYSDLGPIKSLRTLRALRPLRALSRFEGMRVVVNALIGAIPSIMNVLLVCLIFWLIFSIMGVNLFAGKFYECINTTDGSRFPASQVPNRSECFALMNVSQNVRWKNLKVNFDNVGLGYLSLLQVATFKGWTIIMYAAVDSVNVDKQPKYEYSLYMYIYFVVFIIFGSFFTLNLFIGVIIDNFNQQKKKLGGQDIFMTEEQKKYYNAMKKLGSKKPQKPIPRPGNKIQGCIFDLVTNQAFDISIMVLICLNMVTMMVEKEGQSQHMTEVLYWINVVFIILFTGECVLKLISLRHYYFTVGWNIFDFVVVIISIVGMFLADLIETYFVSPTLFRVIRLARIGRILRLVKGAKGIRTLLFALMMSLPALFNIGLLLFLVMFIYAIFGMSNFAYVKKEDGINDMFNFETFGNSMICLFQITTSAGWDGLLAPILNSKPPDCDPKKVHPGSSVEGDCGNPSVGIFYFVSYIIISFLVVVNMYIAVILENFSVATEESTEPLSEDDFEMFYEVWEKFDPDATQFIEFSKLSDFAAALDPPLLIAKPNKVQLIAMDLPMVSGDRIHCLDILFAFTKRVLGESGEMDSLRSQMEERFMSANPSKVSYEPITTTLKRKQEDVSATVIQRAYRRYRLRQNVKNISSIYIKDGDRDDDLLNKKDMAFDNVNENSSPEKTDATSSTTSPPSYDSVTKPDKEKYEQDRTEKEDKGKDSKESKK
The experiment in a line: Nav1.7 (hSCN9A) electrophysiology assay, PatchXpress platform. In kind it is cell-based. Conditions: estimated IC50 from single point electrophysiology data, HEK cells stably expressing hSCN9A, held at V1/2 of inactivation, read-out: Nav1.7 EIC50. Here is the method:
The ability of the compounds of formula (I) to block the Nav1.7 (or SCN9A) channel were measured using the assay described below.
Human Embryonic Kidney (HEK) cells were transfected with an hSCN9A construct using lipofectamine reagent (Invitrogen), using standard techniques. Cells stably expressing the hSCN9A constructs were identified by their resistance to G-418 (400 μg/ml). Clones were screened for expression using the whole-cell voltage-clamp technique.
HEK cells stably transfected with hSCN9A were maintained in DMEM medium supplemented with 10% heat-inactivated fetal bovine serum and 400 μg/ml G-418 in an incubator at 37° C. with a humidified atmosphere of 10% CO2. For HTS, cells were harvested from flasks by trypsinization and replated in an appropriate multi-well plate (typically 96 or 384 wells/plate) such that confluence would be achieved within 24 hours of plating. For electrophysiological studies, cells were removed from the culture flask by brief trypsinization and re-plated at low density onto glass cover slips. Cells were typically used for electrophysiological experiments within 24 to 72 hours after plating.
Cover slips containing HEK cells expressing hSCN9A were placed in a bath on the stage of an inverted microscope and perfused (approximately 1 ml/minutes) with extracellular solution of the following composition: 138 mM NaCl, 2 mM CaCl2, 5.4 mM KCl, 1 mM MgCl2, 10 mM glucose, and 10 mM HEPES, pH 7.4, with NaOH. […] The osmolarity of the extracellular and intracellular solutions was 300 mOsm/kg and 295 mOsm/kg, respectively. All recordings were made at room temperature (22-24° C.) using AXOPATCH 200B amplifiers and PCLAMP software (Axon Instruments, Burlingame, Calif.).
hSCN9A currents in HEK cells were measured using the whole-cell configuration of the patch-clamp technique (Hamill et al., 1981). Uncompensated series resistance was typically 2 to 5 mega ohms and >85% series resistance compensation was routinely achieved. […] Current records were acquired at 20 to 50 KHz and filtered at 5 to 10 KHz.
HEK cells stably transfected with hSCN9A were viewed under Hoffman contrast optics and placed in front of an array of flow pipes emitting either control or compound-containing extracellular solutions. All compounds were dissolved in dimethyl sulfoxide to make 10 mM stock solutions, which were then diluted into extracellular solution to attain the final concentrations desired. […] The voltage-dependence of inactivation was determined by applying a series of depolarizing prepulses (8 sec long in 10 mV increments) from a negative holding potential. The voltage was then immediately stepped to 0 mV to assess the magnitude of the sodium current. Currents elicited at 0 mV were plotted as a function of prepulse potential to allow estimation of the voltage at which 50% of the channels were inactivated (midpoint of inactivation or V1/2). Compounds were tested for their ability to inhibit hSCN9A sodium channels by activating the channel with a 20 msec voltage step to 0 mV following an 8 second conditioning prepulse to the empirically determined V1/2. Compound effect (% inhibition) was determined by difference in current amplitude before and after application of test compounds. […] Inhibition values <20% and >80% were excluded from the calculation.
Electrophysiological assays were conducted with PatchXpress 7000 hardware and associated software (Molecular Devices Corp). All assay buffers and solutions were identical to those used in conventional whole-cell voltage clamp experiments described above. hSCN9A cells were grown as above to 50%-80% confluency and harvested by trypsinization. Trypsinized cells were washed and resuspended in extracellular buffer at a concentration of 1×10^6 cells/ml. The onboard liquid handling facility of the PatchXpress was used for dispensing cells and application of test compounds.
As for `CS(=O)(=O)NC(=O)c1cc(F)c(OCc2ccc(Cl)c(C(F)(F)F)c2)cc1F` [Example 70, 4-(4-Chloro-3-(trifluoromethyl)benzyloxy)-2,5-difluoro-N-(methylsulfonyl) benzamide], the IC50 was 0.16 µM. For `COc1ccc(COc2cc(F)c(C(=O)NS(C)(=O)=O)cc2Cl)cc1` [Example 71, 5-chloro-2-fluoro-4-[(4-methoxybenzyl)oxy]-N-(methylsulfonyl)benzamide], the IC50 is 3.9 µM. The value for `CS(=O)(=O)NC(=O)c1ccc(OCc2ccc(Cl)cc2)c(Cl)c1` [Example 73, 3-chloro-4-[(4-chlorobenzyl)oxy]-N-(methylsulfonyl)benzamide] was 6.4 µM; that for `CS(=O)(=O)NC(=O)c1ccc(OCc2cccc(Cl)c2)c(C#N)c1` [Example 74, 4-[(3-chlorobenzyl)oxy]-3-cyano-N-(methylsulfonyl)benzamide] was 9.7 µM. On to `CS(=O)(=O)NC(=O)c1ccc(OCc2ccccc2OC(F)(F)F)c(C#N)c1` [Example 76, 3-cyano-N-(methylsulfonyl)-4-{[2-(trifluoromethoxy)benzyl]oxy}benzamide], for which the IC50 is 10 µM. The result for `CS(=O)(=O)NC(=O)c1ccc(OCc2ccc(Cl)cc2)c(C#N)c1` [Example 77, 4-[(4-chlorobenzyl)oxy]-3-cyano-N-(methylsulfonyl)benzamide] reads greater than 3 µM; that for `CS(=O)(=O)NC(=O)c1cc(Cl)c(OCc2ccccc2Cl)cc1F` [Example 78, 5-chloro-4-[(2-chlorobenzyl)oxy]-2-fluoro-N-(methylsulfonyl)benzamide], 0.39 µM; that for `CS(=O)(=O)NC(=O)c1ccc(OCc2cccc(C#N)c2)c(Cl)c1` [Example 80, 3-chloro-4-[(3-cyanobenzyl)oxy]-N-(methylsulfonyl)benzamide], greater than 3 µM.

As to `COc1cccc(COc2ccc(C(=O)NS(C)(=O)=O)cc2)c1` [Example 82, 4-[(3-methoxybenzyl)oxy]-N-(methylsulfonyl)benzamide], the IC50 is 5.5 µM. In the case of `CS(=O)(=O)NC(=O)c1cc(Cl)c(OCc2ccc(-c3ccccc3)cc2)cc1F` [Example 83, 4-(biphenyl-4-ylmethoxy)-5-chloro-2-fluoro-N-(methylsulfonyl)benzamide], the IC50 is 0.62 µM. The result for `CS(=O)(=O)NC(=O)c1cc(Cl)c(OCc2ccc(Cl)cc2)cc1F` [Example 84, 5-chloro-4-[(4-chlorobenzyl)oxy]-2-fluoro-N-(methylsulfonyl)benzamide] reads 6.5 µM; that for `CS(=O)(=O)NC(=O)c1ccc(OCc2ccc(-c3ccccc3)cc2)cc1` [Example 85, 4-(biphenyl-4-ylmethoxy)-N-(methylsulfonyl)benzamide], 0.45 µM; that for `CS(=O)(=O)NC(=O)c1cc(Cl)c(OCc2cccc(Cl)c2)cc1F` [Example 86, 5-chloro-4-[(3-chlorobenzyl)oxy]-2-fluoro-N-(methylsulfonyl)benzamide], 0.58 µM.

Consider `CS(=O)(=O)NC(=O)c1cc(Cl)c(OCc2ccccc2-c2ccccc2)cc1F` [Example 87, 4-(biphenyl-2-ylmethoxy)-5-chloro-2-fluoro-N-(methylsulfonyl)benzamide], for which the IC50 is 0.64 µM.

For the compound `CS(=O)(=O)NC(=O)c1ccc(OCc2ccc(Cl)cc2)cc1` [Example 88, 4-[(4-chlorobenzyl)oxy]-N-(methylsulfonyl)benzamide], the IC50 was 6.1 µM.

For `COc1ccc(COc2ccc(C(=O)NS(C)(=O)=O)cc2)cc1` [Example 89, 4-[(4-methoxybenzyl)oxy]-N-(methylsulfonyl)benzamide], the IC50 is greater than 3 µM. Regarding `CS(=O)(=O)NC(=O)c1ccc(OCc2ccc(-n3cccn3)cc2)c(Cl)c1` [Example 90, 3-chloro-N-(methylsulfonyl)-4-{[4-(1H-pyrazol-1-yl)benzyl]oxy}benzamide], the IC50 was greater than 3 µM.

As for `CS(=O)(=O)NC(=O)c1ccc(OCc2cccc(Cl)c2)cc1` [Example 91, 4-[(3-chlorobenzyl)oxy]-N-(methylsulfonyl)benzamide], the IC50 was 3.5 µM.

Turning to `CS(=O)(=O)NC(=O)c1ccc(OCc2cccc(OC(F)(F)F)c2)cc1` [Example 92, N-(methylsulfonyl)-4-{[3-(trifluoromethoxy)benzyl]oxy}benzamide], the IC50 was 0.59 µM. `CS(=O)(=O)NC(=O)c1ccc(OCc2ccccc2-c2ccccc2)c(C#N)c1` [Example 93, 4-(biphenyl-2-ylmethoxy)-3-cyano-N-(methylsulfonyl)benzamide]: the IC50 was greater than 3 µM. The value for `CS(=O)(=O)NC(=O)c1ccc(OCc2ccccc2-c2ccccc2)cc1` [Example 94, 4-(biphenyl-2-ylmethoxy)-N-(methylsulfonyl)benzamide] was 4.3 µM; that for `COc1ccc(OCc2cc(F)c(C(=O)NS(C)(=O)=O)cc2F)cc1F` [Example 97, 2,5-difluoro-4-[(3-fluoro-4-methoxyphenoxy)methyl]-N-(methylsulfonyl)benzamide] was 1.5 µM; that for `COc1cc(Cl)cc(OCc2cc(F)c(C(=O)NS(C)(=O)=O)cc2F)c1` [Example 98, 4-[(3-chloro-5-methoxyphenoxy)methyl]-2,5-difluoro-N-(methylsulfonyl)benzamide] was 0.14 µM. The value for `CS(=O)(=O)NC(=O)c1cc(F)c(COc2ccc3cc(C#N)ccc3c2)cc1F` [Example 99, 4-{[(6-cyano-2-naphthyl)oxy]methyl}-2,5-difluoro-N-(methylsulfonyl)benzamide] was 0.82 µM; that for `Cc1ccc(Cl)cc1OCc1cc(F)c(C(=O)NS(C)(=O)=O)cc1F` [Example 100, 4-[(5-chloro-2-methylphenoxy)methyl]-2,5-difluoro-N-(methylsulfonyl)benzamide] was 0.39 µM.

For the compound `CS(=O)(=O)NC(=O)c1cc(F)c(COc2ccc(C#N)c(C(F)(F)F)c2)cc1F` [Example 101, 4-{[4-cyano-3-(trifluoromethyl)phenoxy]methyl}-2,5-difluoro-N-(methylsulfonyl)benzamide], the IC50 was 1.9 µM. The value for `Cc1c(OCc2cc(F)c(C(=O)NS(C)(=O)=O)cc2F)cccc1-n1cccn1` [Example 102, 2,5-difluoro-4-{[2-methyl-3-(1H-pyrazol-1-yl)phenoxy]methyl}-N-(methylsulfonyl)benzamide] was greater than 3 µM. Take `CS(=O)(=O)NC(=O)c1cc(F)c(COc2ccc(C#N)c(C#N)c2)cc1F` [Example 103, 4-[(3,4-dicyanophenoxy)methyl]-2,5-difluoro-N-(methylsulfonyl)benzamide]: the IC50 is 6.1 µM. Regarding `CS(=O)(=O)NC(=O)c1cc(F)c(COc2ccc(C#N)cc2F)cc1F` [Example 104, 4-[(4-cyano-2-fluorophenoxy)methyl]-2,5-difluoro-N-(methylsulfonyl)benzamide], the IC50 is 5.1 µM.

For `Cc1cc(Cl)cc(OCc2cc(F)c(C(=O)NS(C)(=O)=O)cc2F)c1` [Example 105, 4-[(3-chloro-5-methylphenoxy)methyl]-2,5-difluoro-N-(methylsulfonyl)benzamide], the IC50 was 0.1 µM. For `CN1CCC(c2cccc(OCc3cc(F)c(C(=O)NS(C)(=O)=O)cc3F)c2)CC1` [Example 106, 2,5-difluoro-4-{[3-(1-methylpiperidin-4-yl)phenoxy]methyl}-N-(methylsulfonyl)benzamide], the IC50 is 9.2 µM.
